In patent publication US9394309B2, “Substituted phenylimidazopyrazoles and their use” (BAYER INTELLECTUAL PROPERTY GmbH, priority 2012, dated 2016):

How the values were obtained:
[1] = molecular target: intracellular domain of human Tie2 (GST fusion protein) (Homo sapiens (Human), UniProt Q02763); assay: Tie2 kinase assay (Tie2-TR-FRET); type: biochemical; settings: ATP concentration 1 mM; in some cases means of several independent determinations
Procedure: The Tie2-inhibitory activity of the substances according to the invention was determined with the aid of one of the Tie2-TR-FRET assays described in the sections below at an ATP concentration of 1 mM (TR-FRET=Time-Resolved Fluorescence Resonance Energy Transfer):
The enzyme used was a recombinant fusion protein of glutathione S-transferase (GST) and the intracellular domain of human Tie2 (amino acids 776-1124) which was expressed in Baculovirus-infected insect cells (Hi5) and was purified by affinity chromatography on glutathione-Sepharose. Alternatively, it is also possible to use commercially available GST-His6-Tie2 fusion protein (ProQinase GmbH, Freiburg im Breisgau, Germany). The substrate used for the kinase reaction was the biotinylated peptide biotin-Ahx-[…] […]
The reaction was stopped by addition of 5 μl of a solution of TR-FRET detection reagents [200 nM streptavidin-XL665 and 2 nM PT66-Eu chelate, a europium chelate-labelled anti-phosphotyrosine antibody (Perkin-Elmer); alternatively, it is also possible to use PT66-Tb cryptate (Cisbio Bioassays, Codolet, France)] in aqueous EDTA solution [90 mM EDTA, 0.28% (w/v) bovine serum albumin (BSA) in 50 mM HEPES pH 7.5]. […] The amount of phosphorylated substrate was then determined by measuring the resonance energy transfer from PT66-Eu chelate to streptavidin-XL665. […]

endogenous Tie2 receptor = endogenous Tie2 receptor (Homo sapiens (Human), UniProt Q02763); assay: Tie2-pTyr-ELISA (Tie2 autophosphorylation in HUVEC); type: cell-based; settings: autophosphorylation elevated by 4 mM sodium orthovanadate, from 2-7 independent measurements
Chain of endogenous Tie2 receptor (Q02763 23-1124): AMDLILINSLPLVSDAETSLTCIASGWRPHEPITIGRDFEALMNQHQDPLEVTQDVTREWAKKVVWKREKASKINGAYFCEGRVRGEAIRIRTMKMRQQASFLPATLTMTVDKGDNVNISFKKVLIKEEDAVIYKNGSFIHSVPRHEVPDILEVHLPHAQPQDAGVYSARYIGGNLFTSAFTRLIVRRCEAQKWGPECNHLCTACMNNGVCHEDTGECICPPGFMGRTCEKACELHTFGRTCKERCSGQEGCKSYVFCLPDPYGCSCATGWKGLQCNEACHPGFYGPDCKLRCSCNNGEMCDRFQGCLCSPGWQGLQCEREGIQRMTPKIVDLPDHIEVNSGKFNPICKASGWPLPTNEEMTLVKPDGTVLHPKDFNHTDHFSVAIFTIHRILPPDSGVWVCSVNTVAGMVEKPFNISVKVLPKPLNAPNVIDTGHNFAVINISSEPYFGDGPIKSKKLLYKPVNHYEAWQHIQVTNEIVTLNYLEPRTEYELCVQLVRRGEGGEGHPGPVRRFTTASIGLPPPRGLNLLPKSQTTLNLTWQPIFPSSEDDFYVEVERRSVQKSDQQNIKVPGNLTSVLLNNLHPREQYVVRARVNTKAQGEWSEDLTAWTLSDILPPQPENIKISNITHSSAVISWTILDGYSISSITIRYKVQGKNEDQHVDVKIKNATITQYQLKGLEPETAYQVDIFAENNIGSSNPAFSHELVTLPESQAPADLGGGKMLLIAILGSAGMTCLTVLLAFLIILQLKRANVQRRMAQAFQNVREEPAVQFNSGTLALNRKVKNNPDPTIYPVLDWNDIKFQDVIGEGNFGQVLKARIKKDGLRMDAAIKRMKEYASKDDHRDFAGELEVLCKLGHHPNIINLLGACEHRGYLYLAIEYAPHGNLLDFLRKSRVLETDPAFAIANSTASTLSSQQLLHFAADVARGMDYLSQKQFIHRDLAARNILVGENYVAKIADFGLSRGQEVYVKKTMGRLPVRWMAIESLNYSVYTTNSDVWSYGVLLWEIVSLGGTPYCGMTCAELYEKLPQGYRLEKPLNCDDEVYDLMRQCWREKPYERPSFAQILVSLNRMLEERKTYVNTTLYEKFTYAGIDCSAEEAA
Procedure: The cellular activity of the compounds according to the invention as Tie2 kinase inhibitors was determined in human endothelial cells (HUVEC) by measuring the inhibition of the autophosphorylation, elevated by treatment with sodium orthovanadate, of the endogenous Tie2 receptor by means of a Tie2/phosphotyrosine sandwich ELISA.
Human endothelial cells (human umbilical vein endothelial cells, HUVEC) were obtained from Cellsystems (FC-0003), cultured in Vasculife VEGF complete medium (Cellsystems, LL-1020) with 2% foetal calf serum (FCS) at 37° C./5% CO2 and used for Tie2-ELISA measurements up to passage 8.
HUVEC were plated in a culture volume of 100 μl of Vasculife VEGF complete medium at a cell density of 30 000 cells per well in transparent collagen-coated 96-well cell culture plates (Falcon, #353075) and incubated in an incubation cabinet at 37° C./5% CO2 overnight. The test substances dissolved in DMSO were used to prepare in each case one dilution series in Vasculife VEGF low-serum medium [basal medium with LifeFactors (Cellsystems, LM-0002), without FCS, with 0.1% BSA] without sodium orthovanadate and one dilution series in Vasculife VEGF low-serum-medium with 8 mM sodium orthovanadate in the desired concentrations in the range from […] to […], the final DMSO concentration being 1%. […]

Chain of intracellular domain of human Tie2 (GST fusion protein) (Q02763 776-1124): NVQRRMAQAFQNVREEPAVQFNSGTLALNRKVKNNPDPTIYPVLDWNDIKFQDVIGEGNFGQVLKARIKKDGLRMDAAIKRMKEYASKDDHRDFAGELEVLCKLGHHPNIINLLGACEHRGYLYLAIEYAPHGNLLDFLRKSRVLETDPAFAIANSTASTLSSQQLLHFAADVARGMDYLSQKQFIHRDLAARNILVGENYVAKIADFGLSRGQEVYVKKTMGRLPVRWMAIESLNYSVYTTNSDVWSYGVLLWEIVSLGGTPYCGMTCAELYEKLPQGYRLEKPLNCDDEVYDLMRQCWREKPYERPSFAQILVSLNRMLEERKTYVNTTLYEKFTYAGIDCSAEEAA

## Cc1ccc(NC(=O)c2cc(C#N)cc(S(F)(F)(F)(F)F)c2)cc1-n1ccn2nc(-c3cn[nH]c3)cc12 [Example 85, 3-Cyano-N-{4-methyl-3-[6-(1H-pyrazol-4-yl)-1H-imidazo[1,2-b]pyrazol-1-yl]phenyl}-5-(pentafluoro-λ^6-sulphanyl)benzamide]
[1]
  IC50: 20 nM
Endogenous Tie2 receptor
  IC50: 44 nM
